Columns and labels:
[1] = system: Human foreskin fibroblasts; assay: Mitogenicity: 3H-thymidine incorporation; type: cell-based
Procedure: Mitogenicity was assayed substantially following the method described by D. J. Knauer et al, J Biol Chem (1984) 259:5623-31.
Human foreskin fibroblasts were obtained and frozen at the thirteenth passage. Thawed cells are trypsinized, pelleted, and resuspended in a medium containing DMEM, 5% FBS, 1 mM sodium pyruvate, 300 μg/mL L-glutamine, 100 U/mL penicillin, and 100 μg/mL streptomycin. The cells are counted using a hemocytometer and 0.4% trypan blue. The cell concentration is adjusted to 1×10^-5 cells/mL using the same medium, and dispensed onto microtiter plates (100 μL/well). The plates are incubated for 5 days in a tissue culture incubator.
EGF muteins prepared in Example 1 and native sequence EGF are dissolved to make 100 μg/mL solutions. These solutions are used to make serial dilutions of 20, 10, 5, 2.5, 1.25, 0.625, 0.3125, 0.15625, 0.078125, 0.0390625, 0.0195, and 0.00975 ng/mL. Ten μL of each dilution is added to a microtiter plate well, and the plates returned to the incubator and incubated at 37° C. for 18 hours. The cells are then pulsed with ^3 H-thymidine (^3 H-T), by adding 10 μL of ^3 H-T (100 μCi/mL) to each well, and incubating for 24 hours. The ^3 H-T is then expelled, and the plates rinsed twice with PBS. To fix the cells, the plates are then incubated twice with 5% trichloroacetic acid (TCA) for 15 minutes at room temperature, followed by incubation twice with 100% MeOH. The plates are then air-dried.
The well contents are then solubilized using 0.3 N NaOH (50 μL/well) for 30 minutes, and transferred to scintillation vials. Scintillation fluid (Ready-Solv EP, 4 mL) is then added to each vial, and the vials counted for 1 min with a 0-1,000 (^3 H) window in a Beckman LS3801 counter.

[2] = EGF biological activity, test not specified
Source text: C. […] EGF-D represents the 52-amino acid sequence obtained by removing the C-terminal arg, while EGF-B corresponds to EGF-D wherein the C-terminal arg-leu has been removed. EGF-C appears to be EGF-D in which Met21 has been oxidized, while EGF-A appears to be EGF-B with Met21 oxidized. EGF-D is reported to be stable when stored as a lyophilized powder.
EGF may also be altered by adding an N-terminal extension. EGF-flag (.phi.EGF) derivatives have the additional sequence […], which permits rapid purification of peptides by affinity chromatography on anti-flag MAb columns (International Biotechnology Inc.).

[3] = biological target: T1, EGF receptor on fixed A431 cells (Homo sapiens, UniProt P00533); assay: Receptor affinity: binding to fixed A431 cells; conditions: 1 nM, 2 hr at 37° C.
T1 construct: Confluent A43 1 cells were fixed in 96-well microtiter plates using 0.05% formaldehyde; endogenous in cells; host or cells: A431 cells, formaldehyde-fixed
Procedure: Confluent A43 1 cells were fixed in 96-well microtiter plates using 0.05% formaldehyde for 10 min at room temperature, then washed 3× with 200 μL PBS with 0.1% bovine serum albumin (BSA).
The wells were then washed 3× with 200 μL of PBS/0.1% BSA, detached, and counted in a gamma counter.

[4] = forms isolated from recombinant yeast culture; cited from earlier work
[5] = stored as a lyophilized powder; cited from earlier work

## EGF-A41: EGF mutein with Ala at position 41
[1]
  Mitogenicity: < 0.4 percentage of control (EGF)

## .phi.EGF-E12: flag-extended EGF mutein with Glu for Gly12 (NSDSECPLSHDEYCLHDGVCMYIEALDKYACNCVVGYIGERCQYRDLKWWELR; not fully specified; Epidermal growth factor N-terminal FLAG extension; UniProt P01133 971-1023, looked up, variant G12E)
[2]
  biological activity of EGF-flag derivatives: biologically active

## EGF-A43: EGF mutein with Ala at position 43 (Glu43 replaced)
[1]
  Mitogenicity: 63 percentage of control (EGF)

## .phi.EGF-Q12: flag-extended EGF mutein with Gln at position 12 (NSDSECPLSHDQYCLHDGVCMYIEALDKYACNCVVGYIGERCQYRDLKWWELR; not fully specified; Epidermal growth factor N-terminal FLAG extension; UniProt P01133 971-1023, looked up, variant G12Q)
[3]
  Affinity: 154 percentage of control (EGF)
[1]
  Mitogenicity: 286 percentage of control (EGF)

## EGF-B: EGF-D wherein the C-terminal arg-leu has been removed (NSDSECPLSHDGYCLHDGVCMYIEALDKYACNCVVGYIGERCQYRDLKWWE; not fully specified; Epidermal growth factor; UniProt P01133 971-1021, looked up, fragment)
[4]
  EGF activity: full EGF activity

## EFG: wild-type human epidermal growth factor, 53-amino acid protein; control of Table 1 [reference compound]
[1]
  Mitogenicity: 100 percentage of control (EGF)

## .phi.EGF-W13: flag-extended EGF mutein with Trp for Tyr13 (NSDSECPLSHDGWCLHDGVCMYIEALDKYACNCVVGYIGERCQYRDLKWWELR; not fully specified; Epidermal growth factor N-terminal FLAG extension; UniProt P01133 971-1023, looked up, variant Y13W)
[3]
  Affinity: 73 percentage of control (EGF)
[1]
  Mitogenicity: 216 percentage of control (EGF)
[2]
  biological activity of EGF-flag derivatives: biologically active

## EGF-D: 52-amino acid sequence obtained by removing the C-terminal arg of EGF (NSDSECPLSHDGYCLHDGVCMYIEALDKYACNCVVGYIGERCQYRDLKWWEL; not fully specified; Epidermal growth factor; UniProt P01133 971-1022, looked up, fragment)
[5]
  stability on storage: stable
[4]
  EGF activity: full EGF activity

## EGF-A15: EGF mutein with Ala at position 15
[1]
  Mitogenicity: 3 percentage of control (EGF)
